In brackets after ≈: the same amount, converted by molar mass.
Assays:
[1] = Pharmacokinetic property (Vdss) for the compound (5 mg/kg iv) was determined in rats; format: ADME, organism-based; details: rat, in vivo, read-out: Vdss
[2] = Oral bioavailability in rat (dose 20 mg/kg p.o.); format: ADME, organism-based; details: in vivo
[3] = Pharmacokinetic property (Clearance) for the compound (5 mg/kg iv) was determined in rats; format: ADME, organism-based; details: rat, in vivo
[4] = Pharmacokinetic property (t1/2) for the compound ([…] mg/kg iv) was determined in rats; format: ADME, organism-based; details: rat, in vivo, 5 mg/kg
[5] = Solubility at pH 7.4 was determined; format: physicochemical; details: buffer
[6] = Solubility at pH 5.2 was determined; format: physicochemical; details: buffer
[7] = Partition coefficient (logP); format: physicochemical; details: octanol/water
[8] = Solubility was determined; format: physicochemical

## CN1CCN(CCCn2cc(-c3cncc(-c4ccsc4)c3)c3ccccc32)CC1
[1]
  Vd: 1.7 L/kg
[2]
  bioavailability: 33%
[3]
  clearance: 13 mL/min/kg
[4]
  half-life: 1.8 h
[5]
  solubility: > 205 µg/mL
[6]
  solubility: 18200 µg/mL (≈ 43600 µM)
[7]
  logP: 3.7

## c1ccc2c(c1)c(-c1cncc(-c3ccsc3)c1)cn2CCCN1CCCCC1
[1]
  Vd: 1.8 L/kg
[2]
  bioavailability: 28%
[3]
  clearance: 15 mL/min/kg
[4]
  half-life: 1.6 h
[5]
  solubility: < 5 µg/mL
[6]
  solubility: 177 µg/mL (≈ 441 µM)

## c1ccc2c(c1)c(-c1cncc(-c3ccsc3)c1)cn2CCN1CCOCC1
[1]
  Vd: 7.2 L/kg
[2]
  bioavailability: 35%
[3]
  clearance: 65 mL/min/kg
[4]
  half-life: 1.9 h
[5]
  solubility: 5 µg/mL (≈ 12.8 µM)
[6]
  solubility: 24 µg/mL (≈ 61.6 µM)
[7]
  logP: 3.3

## CC(=O)Nc1oc(-c2cc3ccccc3cc2O)nc1-c1ccccc1
[8]
  solubility: < 5 µg/mL
[7]
  logP: > 4.1

— ChEMBL document CHEMBL1136194, “Discovery and evaluation of 3-(5-thien-3-ylpyridin-3-yl)-1H-indoles as a novel class of KDR kinase inhibitors” (Bioorg Med Chem Lett, 2003)
